Tests used:
[1] = molecular target: D(2) dopamine receptor (Homo sapiens) (UniProt P14416); settings: Compound concentration 10.0 uM
[2] = molecular target: 5-hydroxytryptamine receptor 1B (Homo sapiens) (UniProt P28222); test: Inhibition of Serotonin (5-Hydroxytryptamine) 5-HT1B at 10 µM in the Eurofins-Panlabs radioligand binding assay (Eurofins_assay_271200); settings: Compound concentration 10.0 uM
[3] = molecular target: Cathepsin G (Homo sapiens) (UniProt P08311); test: Inhibition of Peptidase, CTSG (Cathepsin G) at 10 µM in the Eurofins-Panlabs enzyme assay (Eurofins_assay_112510); set-up: substrate with concentration; settings: Compound concentration 10.0 uM
[4] = molecular target: Vasopressin V2 receptor (Homo sapiens) (UniProt P30518); test: Vasopressin V2 Eurofins-Panlabs radioligand binding assay; set-up: ligand concentration 0.5 nM; settings: Compound concentration 10.0 uM
[5] = molecular target: Glutamate NMDA receptor; GRIN1/GRIN2A (Homo sapiens) (UniProt Q05586+Q12879); test: NMDA-NR1a/NR2a Eurofins-Panlabs radioligand binding assay; assay type: protein-complex assay; settings: Compound concentration 10.0 uM
[6] = molecular target: Type-2 angiotensin II receptor (Homo sapiens) (UniProt P50052); test: Angiotensin AT2 Eurofins-Panlabs radioligand binding assay; assay type: protein assay; settings: Compound concentration 10.0 uM
[7] = molecular target: Prostacyclin receptor (Homo sapiens) (UniProt P43119); test: Prostanoid IP Eurofins-Panlabs radioligand binding assay; set-up: ligand concentration 5 nM; settings: Compound concentration 10.0 uM
[8] = molecular target: Galanin receptor type 2 (Homo sapiens) (UniProt O43603); test: Galanin GAL2 Eurofins-Panlabs radioligand binding assay; set-up: ligand concentration 0.02 nM; settings: Compound concentration 10.0 uM
[9] = molecular target: T1, 5-hydroxytryptamine receptor 1A (Homo sapiens) (UniProt P08908); settings: Compound concentration 10.0 uM
T1 sequence (whole entry): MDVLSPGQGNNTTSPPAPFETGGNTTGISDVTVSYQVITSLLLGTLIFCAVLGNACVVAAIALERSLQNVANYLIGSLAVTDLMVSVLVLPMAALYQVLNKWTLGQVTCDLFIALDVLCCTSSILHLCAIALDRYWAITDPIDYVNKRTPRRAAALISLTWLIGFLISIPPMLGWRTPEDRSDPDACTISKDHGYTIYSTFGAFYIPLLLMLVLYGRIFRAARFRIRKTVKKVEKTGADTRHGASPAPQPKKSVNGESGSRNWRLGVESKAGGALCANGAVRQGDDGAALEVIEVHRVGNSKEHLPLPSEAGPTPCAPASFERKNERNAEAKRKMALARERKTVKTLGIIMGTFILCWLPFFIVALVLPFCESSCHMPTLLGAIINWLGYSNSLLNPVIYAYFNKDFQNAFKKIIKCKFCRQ

[10] = molecular target: Insulin receptor (Homo sapiens) (UniProt P06213); test: Protein Tyrosine Kinase, Insulin Receptor Eurofins-Panlabs enzyme assay; set-up: substrate with concentration 10 µg/mL […], incubation time 60 min, incubation temperature 25 °C; settings: Compound concentration 10.0 uM
[11] = molecular target: Beta-2 adrenergic receptor (Homo sapiens) (UniProt P07550); settings: Compound concentration 10.0 uM
[12] = molecular target: Neuropeptide Y receptor type 1 (Homo sapiens) (UniProt P25929); test: Inhibition of Neuropeptide Y Y1 at 10 µM in the Eurofins-Panlabs radioligand binding assay (Eurofins_assay_257010); settings: Compound concentration 10.0 uM
Rattus norvegicus = organism: Rattus norvegicus; test: Serotonin (5-Hydroxytryptamine) 5-HT2, Non-Selective Eurofins-Panlabs radioligand binding assay; assay type: protein assay; settings: Compound concentration 10.0 uM
[13] = molecular target: High affinity choline transporter 1 (Homo sapiens) (UniProt Q9GZV3); test: Transporter, Choline Eurofins-Panlabs radioligand binding assay; set-up: ligand concentration 0.75 nM; settings: Rattus norvegicus; Compound concentration 10.0 uM
[14] = molecular target: T2, Glutamate NMDA receptor (Rattus norvegicus) (UniProt P35439+Q00959+Q00960+Q00961+Q62645+Q8VHN2+Q9R1M7); settings: Compound concentration 10.0 uM
[15] = molecular target: T2, Glutamate NMDA receptor (Rattus norvegicus); settings: Compound concentration 10.0 uM; remark: listed apart in the source
[16] = Inhibition of Atrial Natriuretic Factor (ANF) at 10 µM in the Eurofins-Panlabs radioligand binding assay (Eurofins_assay_211000); settings: Cavia porcellus
[17] = molecular target: Phosphodiesterase 3 (Homo sapiens) (UniProt Q14432+Q13370); test: Inhibition of Phosphodiesterase PDE3 at compound concentration of 10.0 uM in the Eurofins-Panlabs enzyme assay (Eurofins_assay_152000); assay type: protein assay; set-up: substrate with concentration 1.01 uM [3H] cAMP + cAMP, incubation time 20 min, incubation temperature 25 C; settings: Compound concentration […]
[18] = molecular target: Glucocorticoid receptor (Homo sapiens) (UniProt P04150); test: Glucocorticoid Eurofins-Panlabs radioligand binding assay; settings: Compound concentration 10.0 uM
[19] = molecular target: T3, Muscarinic acetylcholine receptor M5 (Homo sapiens) (UniProt P08912); test: Inhibition of Muscarinic M5 at 10 µM in the Eurofins-Panlabs radioligand binding assay (Eurofins_assay_253010); set-up: ligand concentration 0.8 nM; settings: Compound concentration 10.0 uM
T3 sequence (whole entry): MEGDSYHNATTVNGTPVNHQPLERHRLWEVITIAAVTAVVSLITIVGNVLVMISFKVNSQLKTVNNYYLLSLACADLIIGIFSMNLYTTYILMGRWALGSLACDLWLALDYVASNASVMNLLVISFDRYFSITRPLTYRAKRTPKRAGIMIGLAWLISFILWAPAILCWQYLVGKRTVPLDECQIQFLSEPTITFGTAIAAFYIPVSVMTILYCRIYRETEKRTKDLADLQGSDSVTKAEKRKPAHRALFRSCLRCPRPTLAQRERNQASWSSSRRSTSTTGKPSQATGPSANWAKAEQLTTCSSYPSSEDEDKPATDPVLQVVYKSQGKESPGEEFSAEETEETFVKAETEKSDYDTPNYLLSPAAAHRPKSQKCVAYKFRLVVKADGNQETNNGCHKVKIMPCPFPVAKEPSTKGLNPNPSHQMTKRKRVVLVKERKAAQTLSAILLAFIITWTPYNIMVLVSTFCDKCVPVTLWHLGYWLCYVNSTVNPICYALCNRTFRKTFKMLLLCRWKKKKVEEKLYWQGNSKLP

[20] = molecular target: Glutamate receptor 2 (Homo sapiens) (UniProt P42262); settings: Rattus norvegicus; Compound concentration 10.0 uM
[21] = molecular target: Endothelin-1 receptor (Homo sapiens) (UniProt P25101); settings: Compound concentration 10.0 uM
[22] = molecular target: Thyrotropin-releasing hormone receptor (Homo sapiens) (UniProt P34981); test: Thyrotropin Releasing Hormone (TRH) Eurofins-Panlabs radioligand binding assay; set-up: ligand concentration 3 nM; settings: Rattus norvegicus; Compound concentration 10.0 uM
Homo sapiens = organism: Homo sapiens; test: Inhibition of Phosphodiesterase PDE4 at compound concentration of 10.0 uM in the Eurofins-Panlabs enzyme assay (Eurofins_assay_154000); assay type: protein assay; set-up: substrate with concentration 1.01 uM [3 H]cAMP + cAMP, incubation time 20 min, incubation temperature 25 C; settings: Compound concentration […]

Chain of Neuropeptide Y receptor type 1 (Homo sapiens) (P25929 whole entry): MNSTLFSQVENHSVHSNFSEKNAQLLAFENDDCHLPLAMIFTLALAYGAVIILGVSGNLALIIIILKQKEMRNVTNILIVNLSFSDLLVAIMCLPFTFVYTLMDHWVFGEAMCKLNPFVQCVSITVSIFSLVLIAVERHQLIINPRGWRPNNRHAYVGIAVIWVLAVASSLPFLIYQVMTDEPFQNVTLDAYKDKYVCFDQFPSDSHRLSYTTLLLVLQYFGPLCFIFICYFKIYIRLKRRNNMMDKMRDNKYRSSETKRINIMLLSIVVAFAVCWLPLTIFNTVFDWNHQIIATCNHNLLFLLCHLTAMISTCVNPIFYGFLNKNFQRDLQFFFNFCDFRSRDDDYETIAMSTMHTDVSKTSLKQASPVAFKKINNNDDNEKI
Chain of Glucocorticoid receptor (Homo sapiens) (P04150 whole entry): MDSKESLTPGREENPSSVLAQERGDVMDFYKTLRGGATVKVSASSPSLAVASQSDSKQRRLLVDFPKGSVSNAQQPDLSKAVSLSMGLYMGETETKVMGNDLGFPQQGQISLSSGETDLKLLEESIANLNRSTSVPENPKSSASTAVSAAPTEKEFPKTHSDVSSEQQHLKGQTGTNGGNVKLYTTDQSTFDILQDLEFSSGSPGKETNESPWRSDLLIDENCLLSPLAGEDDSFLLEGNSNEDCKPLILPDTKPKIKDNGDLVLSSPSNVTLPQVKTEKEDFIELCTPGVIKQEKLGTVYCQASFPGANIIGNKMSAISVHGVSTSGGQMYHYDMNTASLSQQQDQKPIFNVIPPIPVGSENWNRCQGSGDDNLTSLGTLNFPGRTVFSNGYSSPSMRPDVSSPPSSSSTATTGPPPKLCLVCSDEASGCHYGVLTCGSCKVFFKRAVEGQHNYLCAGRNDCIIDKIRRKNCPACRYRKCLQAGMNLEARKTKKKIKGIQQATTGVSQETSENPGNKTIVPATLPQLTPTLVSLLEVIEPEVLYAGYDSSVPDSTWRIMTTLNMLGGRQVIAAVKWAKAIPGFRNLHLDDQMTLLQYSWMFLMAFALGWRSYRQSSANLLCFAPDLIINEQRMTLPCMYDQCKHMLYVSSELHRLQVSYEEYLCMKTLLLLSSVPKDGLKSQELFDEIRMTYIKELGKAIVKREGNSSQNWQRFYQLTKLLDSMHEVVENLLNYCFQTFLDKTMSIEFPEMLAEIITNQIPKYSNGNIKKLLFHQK
Chain of Endothelin-1 receptor (Homo sapiens) (P25101 whole entry): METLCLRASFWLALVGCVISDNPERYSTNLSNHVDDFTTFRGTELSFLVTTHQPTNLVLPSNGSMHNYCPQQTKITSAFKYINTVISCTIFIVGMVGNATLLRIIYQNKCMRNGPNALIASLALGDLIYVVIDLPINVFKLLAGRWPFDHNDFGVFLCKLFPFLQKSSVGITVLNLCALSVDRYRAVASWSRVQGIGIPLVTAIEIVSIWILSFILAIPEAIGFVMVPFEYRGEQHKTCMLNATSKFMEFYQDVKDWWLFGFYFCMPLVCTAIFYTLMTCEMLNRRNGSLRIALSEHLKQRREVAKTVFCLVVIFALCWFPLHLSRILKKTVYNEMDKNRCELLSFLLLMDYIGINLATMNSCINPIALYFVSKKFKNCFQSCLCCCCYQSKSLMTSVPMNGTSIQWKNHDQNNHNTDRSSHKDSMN
Chain of Prostacyclin receptor (Homo sapiens) (P43119 whole entry): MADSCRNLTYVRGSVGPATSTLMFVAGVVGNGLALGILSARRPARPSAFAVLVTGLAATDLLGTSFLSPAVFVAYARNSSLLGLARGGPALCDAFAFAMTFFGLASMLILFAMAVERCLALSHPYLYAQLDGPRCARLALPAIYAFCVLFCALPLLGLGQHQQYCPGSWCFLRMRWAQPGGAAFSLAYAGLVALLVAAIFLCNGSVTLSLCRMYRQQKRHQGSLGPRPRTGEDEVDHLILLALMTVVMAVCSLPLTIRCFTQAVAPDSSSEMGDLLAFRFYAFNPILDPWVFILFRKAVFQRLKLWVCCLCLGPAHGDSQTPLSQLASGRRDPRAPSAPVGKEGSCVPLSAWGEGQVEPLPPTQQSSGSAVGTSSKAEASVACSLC
Chain of Beta-2 adrenergic receptor (Homo sapiens) (P07550 whole entry, looked up): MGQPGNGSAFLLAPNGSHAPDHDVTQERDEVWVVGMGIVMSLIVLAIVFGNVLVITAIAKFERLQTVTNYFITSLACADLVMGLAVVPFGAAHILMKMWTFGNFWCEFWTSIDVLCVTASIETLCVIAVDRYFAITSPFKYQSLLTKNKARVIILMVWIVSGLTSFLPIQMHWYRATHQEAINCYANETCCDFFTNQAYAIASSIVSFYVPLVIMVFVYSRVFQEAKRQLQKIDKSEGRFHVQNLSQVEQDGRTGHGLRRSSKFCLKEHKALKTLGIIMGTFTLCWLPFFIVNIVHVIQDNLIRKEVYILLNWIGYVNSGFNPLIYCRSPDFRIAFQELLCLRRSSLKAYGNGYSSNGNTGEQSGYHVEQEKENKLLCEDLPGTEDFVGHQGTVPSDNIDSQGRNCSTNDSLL
Chain of Thyrotropin-releasing hormone receptor (Homo sapiens) (P34981 whole entry): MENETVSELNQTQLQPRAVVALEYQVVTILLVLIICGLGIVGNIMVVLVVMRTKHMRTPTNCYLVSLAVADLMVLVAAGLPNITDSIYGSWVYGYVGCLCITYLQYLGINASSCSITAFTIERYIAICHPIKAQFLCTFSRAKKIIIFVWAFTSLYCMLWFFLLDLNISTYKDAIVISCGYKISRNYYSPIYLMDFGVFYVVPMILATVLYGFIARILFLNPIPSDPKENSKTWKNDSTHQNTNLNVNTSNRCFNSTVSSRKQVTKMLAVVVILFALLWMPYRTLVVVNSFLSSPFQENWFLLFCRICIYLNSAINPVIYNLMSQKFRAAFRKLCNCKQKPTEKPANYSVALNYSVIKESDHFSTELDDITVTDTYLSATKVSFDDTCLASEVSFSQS
Chain of High affinity choline transporter 1 (Homo sapiens) (Q9GZV3 whole entry): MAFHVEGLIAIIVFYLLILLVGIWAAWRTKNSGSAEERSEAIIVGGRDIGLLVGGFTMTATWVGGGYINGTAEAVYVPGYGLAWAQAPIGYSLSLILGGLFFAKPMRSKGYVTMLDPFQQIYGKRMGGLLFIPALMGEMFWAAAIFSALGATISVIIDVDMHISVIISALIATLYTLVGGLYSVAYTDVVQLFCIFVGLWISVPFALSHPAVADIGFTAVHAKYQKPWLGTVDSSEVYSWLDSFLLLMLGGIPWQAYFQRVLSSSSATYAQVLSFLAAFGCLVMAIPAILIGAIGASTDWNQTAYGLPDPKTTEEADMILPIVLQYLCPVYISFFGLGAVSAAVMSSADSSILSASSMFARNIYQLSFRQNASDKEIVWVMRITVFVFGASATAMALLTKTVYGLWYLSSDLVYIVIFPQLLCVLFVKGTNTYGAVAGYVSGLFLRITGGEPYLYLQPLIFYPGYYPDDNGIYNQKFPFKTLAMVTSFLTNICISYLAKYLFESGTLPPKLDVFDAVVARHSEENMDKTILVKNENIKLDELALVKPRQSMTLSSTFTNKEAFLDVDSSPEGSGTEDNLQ
Chain of Type-2 angiotensin II receptor (Homo sapiens) (P50052 whole entry): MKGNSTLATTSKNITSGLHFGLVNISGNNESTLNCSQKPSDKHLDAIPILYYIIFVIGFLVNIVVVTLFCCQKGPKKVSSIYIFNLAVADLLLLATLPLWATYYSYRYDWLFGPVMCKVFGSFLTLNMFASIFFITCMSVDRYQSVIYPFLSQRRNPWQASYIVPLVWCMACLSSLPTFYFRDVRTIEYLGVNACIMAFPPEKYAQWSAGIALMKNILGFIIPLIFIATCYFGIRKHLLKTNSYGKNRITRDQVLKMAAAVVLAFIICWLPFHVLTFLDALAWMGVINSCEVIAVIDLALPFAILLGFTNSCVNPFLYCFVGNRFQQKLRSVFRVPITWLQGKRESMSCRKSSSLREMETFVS
Chain of Glutamate receptor 2 (Homo sapiens) (P42262 whole entry): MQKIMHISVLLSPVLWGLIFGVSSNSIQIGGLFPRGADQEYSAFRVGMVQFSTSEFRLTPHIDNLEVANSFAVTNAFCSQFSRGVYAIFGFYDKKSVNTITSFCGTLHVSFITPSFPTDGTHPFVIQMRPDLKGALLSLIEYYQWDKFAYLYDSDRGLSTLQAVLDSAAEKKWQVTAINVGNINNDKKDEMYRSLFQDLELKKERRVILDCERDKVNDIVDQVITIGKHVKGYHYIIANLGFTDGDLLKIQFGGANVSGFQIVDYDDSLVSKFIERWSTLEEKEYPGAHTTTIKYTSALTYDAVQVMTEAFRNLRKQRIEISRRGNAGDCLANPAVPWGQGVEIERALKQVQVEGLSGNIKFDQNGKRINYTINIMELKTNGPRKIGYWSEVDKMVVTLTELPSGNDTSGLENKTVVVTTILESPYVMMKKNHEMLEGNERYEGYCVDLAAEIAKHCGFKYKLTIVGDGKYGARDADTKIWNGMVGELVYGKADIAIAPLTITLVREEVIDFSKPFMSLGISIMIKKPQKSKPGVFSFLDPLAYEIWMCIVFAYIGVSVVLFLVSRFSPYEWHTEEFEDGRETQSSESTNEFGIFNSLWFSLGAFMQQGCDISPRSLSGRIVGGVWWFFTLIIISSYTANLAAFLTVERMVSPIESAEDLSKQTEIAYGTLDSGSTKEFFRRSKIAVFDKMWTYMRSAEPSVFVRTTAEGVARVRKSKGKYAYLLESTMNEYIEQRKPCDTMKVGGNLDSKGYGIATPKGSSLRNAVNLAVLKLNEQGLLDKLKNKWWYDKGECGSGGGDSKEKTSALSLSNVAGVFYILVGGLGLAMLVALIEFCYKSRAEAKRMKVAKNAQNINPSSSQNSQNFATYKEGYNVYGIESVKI
Chain of Cathepsin G (Homo sapiens) (P08311 whole entry): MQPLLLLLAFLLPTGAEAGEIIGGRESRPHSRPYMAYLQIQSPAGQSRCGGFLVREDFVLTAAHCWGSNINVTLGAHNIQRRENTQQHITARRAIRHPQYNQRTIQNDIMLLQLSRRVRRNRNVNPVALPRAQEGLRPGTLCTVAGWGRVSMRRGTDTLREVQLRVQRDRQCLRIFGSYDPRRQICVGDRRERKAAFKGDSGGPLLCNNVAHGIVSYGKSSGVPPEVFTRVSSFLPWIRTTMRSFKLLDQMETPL

N#CC1(c2ccccn2)CCN(Cc2cc(C(=O)N3CCCC3)c(=O)n3ccccc23)CC1
inhibition [1]: -5.66%

N#CC1(c2ccccn2)CCN(Cc2cc(C(=O)O)c(=O)n3ccccc23)CC1 [MSD-M1PAM]
inhibition [2]: -2%
inhibition [3]: 10%
inhibition [4]: -2%
inhibition [5]: -6%
inhibition [6]: -2%
inhibition [7]: 22%
inhibition [8]: 4%
inhibition [9]: 2%
inhibition [10]: 1%
inhibition [11]: -4%
inhibition [12]: -1%
inhibition (Rattus norvegicus): 0%
inhibition [13]: 29%
inhibition [14]: 4%
inhibition [15]: 25%
inhibition at 10 µM [16]: 1% (not active)
inhibition [17]: 1%
inhibition [18]: 4%
inhibition [19]: 11%
inhibition [20]: -7%
inhibition [21]: -1%
inhibition [22]: 13%
inhibition (Homo sapiens): 8%
